Broadly, the inhibition is the drop in the measured response relative to a control, in per cent.

The first assay concerns the target T1, Tyrosine-protein phosphatase non-receptor type 1 (Homo sapiens) (UniProt P18031).
T1 sequence (whole entry): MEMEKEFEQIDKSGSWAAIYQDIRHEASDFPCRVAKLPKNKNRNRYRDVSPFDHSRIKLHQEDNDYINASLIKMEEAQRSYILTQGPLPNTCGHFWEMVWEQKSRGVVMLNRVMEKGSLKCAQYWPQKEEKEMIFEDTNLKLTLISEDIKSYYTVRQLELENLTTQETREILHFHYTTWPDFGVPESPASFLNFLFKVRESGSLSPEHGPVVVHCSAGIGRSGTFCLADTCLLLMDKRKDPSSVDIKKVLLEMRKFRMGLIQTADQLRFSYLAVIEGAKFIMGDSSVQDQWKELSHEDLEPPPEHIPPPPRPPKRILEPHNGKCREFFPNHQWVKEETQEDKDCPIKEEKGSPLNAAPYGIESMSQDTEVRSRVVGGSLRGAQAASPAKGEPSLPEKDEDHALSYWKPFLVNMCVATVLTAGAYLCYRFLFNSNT
Briefly: Inhibition of PTP1B (unknown origin) using pNPP as substrate at 20 ug/ml measured for 3 mins by colorimetric assay.
Conditions: not given
The compound `C[C@@H]1CN2C[C@H]3CC[C@@H]4C(=O)C=C5CC[C@@]6(C(=O)[C@H]1C[C@@H]2[C@@]36C)[C@@]54O` registered an inhibition of 40%. `COC(=O)C1=C2C[C@H](O)C3=C2[C@@]2(C1)C(=O)[C@H]1C[C@H]4N(C[C@@H](CC3)[C@]42C)C[C@H]1C` showed an inhibition of 40%.

The target of a further assay is T2, Aurora kinase A (Homo sapiens) (UniProt O14965).
T2 sequence (whole entry): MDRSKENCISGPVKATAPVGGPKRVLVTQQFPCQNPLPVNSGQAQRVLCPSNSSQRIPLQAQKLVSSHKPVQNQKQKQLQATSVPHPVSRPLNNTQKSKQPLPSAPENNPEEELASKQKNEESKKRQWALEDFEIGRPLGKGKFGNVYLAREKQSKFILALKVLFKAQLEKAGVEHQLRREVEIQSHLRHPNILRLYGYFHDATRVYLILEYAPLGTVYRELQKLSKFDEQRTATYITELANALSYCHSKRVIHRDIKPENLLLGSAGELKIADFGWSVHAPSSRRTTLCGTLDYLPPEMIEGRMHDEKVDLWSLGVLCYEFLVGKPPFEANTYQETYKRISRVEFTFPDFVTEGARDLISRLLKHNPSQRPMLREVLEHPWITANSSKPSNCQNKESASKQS
Briefly: Inhibition of aurora kinase A (unknown origin) incubated for 60 mins by fluorescence analysis.
Conditions: not given
`COC(=O)C1=C2CCC3=C2[C@@]2(C1)C(=O)[C@H]1C[C@@]4(O)N(C[C@@H](CC3)[C@@]24C)C[C@H]1C` gave an inhibition of more than 30%.

Another assay addresses T3, Protein deacetylase HDAC6 (Homo sapiens) (UniProt Q9UBN7).
T3 sequence (whole entry): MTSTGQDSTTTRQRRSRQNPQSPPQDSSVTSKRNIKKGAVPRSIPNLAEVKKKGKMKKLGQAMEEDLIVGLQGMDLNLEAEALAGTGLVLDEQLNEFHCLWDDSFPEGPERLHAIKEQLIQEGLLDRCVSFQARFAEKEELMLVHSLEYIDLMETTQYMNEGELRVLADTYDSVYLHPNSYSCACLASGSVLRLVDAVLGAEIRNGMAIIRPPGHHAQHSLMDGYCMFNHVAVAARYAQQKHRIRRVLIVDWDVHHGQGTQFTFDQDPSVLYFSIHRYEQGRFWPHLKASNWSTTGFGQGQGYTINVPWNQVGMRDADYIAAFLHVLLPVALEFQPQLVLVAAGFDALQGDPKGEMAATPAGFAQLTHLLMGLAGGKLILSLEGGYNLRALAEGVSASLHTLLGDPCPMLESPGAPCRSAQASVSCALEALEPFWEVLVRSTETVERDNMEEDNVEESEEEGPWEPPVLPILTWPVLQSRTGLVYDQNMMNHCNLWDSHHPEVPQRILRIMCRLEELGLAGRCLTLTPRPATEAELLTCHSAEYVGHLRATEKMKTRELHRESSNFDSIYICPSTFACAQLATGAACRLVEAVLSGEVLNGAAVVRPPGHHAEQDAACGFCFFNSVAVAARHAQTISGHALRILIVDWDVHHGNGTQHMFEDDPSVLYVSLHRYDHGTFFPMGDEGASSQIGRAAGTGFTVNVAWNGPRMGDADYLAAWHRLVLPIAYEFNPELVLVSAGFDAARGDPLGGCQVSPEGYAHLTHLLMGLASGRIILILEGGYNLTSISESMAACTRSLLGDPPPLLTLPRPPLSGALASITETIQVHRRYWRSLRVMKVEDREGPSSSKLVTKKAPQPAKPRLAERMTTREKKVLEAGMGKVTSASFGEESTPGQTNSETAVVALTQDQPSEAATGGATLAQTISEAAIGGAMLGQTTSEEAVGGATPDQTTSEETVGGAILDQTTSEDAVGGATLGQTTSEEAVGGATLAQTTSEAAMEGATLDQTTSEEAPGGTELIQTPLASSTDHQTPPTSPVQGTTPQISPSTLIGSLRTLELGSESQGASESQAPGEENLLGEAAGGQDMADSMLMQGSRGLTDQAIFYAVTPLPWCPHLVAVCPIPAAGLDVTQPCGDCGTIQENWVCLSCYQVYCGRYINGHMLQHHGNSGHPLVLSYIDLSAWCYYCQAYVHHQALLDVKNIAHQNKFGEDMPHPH
Description: Inhibition of full-length recombinant human HDAC6 expressed in insect High5 cells using Boc-Lys(-acetyl)-AMC as substrate incubated for 3 hrs. Set-up: concentration or dose not given beside the values. Particulars: concentration not given here.
Turning to `COC(=O)[C@@H]1C[C@@]23C(=O)[C@H]4C[C@H]5N(C[C@H]4C)C[C@@H]([C@@H](O)CC4=C2[C@@H]1CC4)[C@]53C`, the inhibition was less than 10%. For `COC(=O)[C@@H]1C[C@@]23C(=O)[C@H]4C[C@H]5N(C[C@@H](CCC6=C2[C@@H]1C[C@H]6O)[C@]53C)C[C@H]4C`, the inhibition is less than 10%. For `COC(=O)[C@@H]1C[C@@]23C(=O)[C@H]4C[C@H]5N(C[C@@H](C[C@H](O)C6=C2[C@@H]1CC6)[C@]53C)C[C@H]4C`, the inhibition was less than 10%. The same measure, in the same setting: as for `C[C@@H]1CN2C[C@H]3CC[C@@H]4C(=O)C=C5CC[C@@]6(C(=O)[C@H]1C[C@@H]2[C@@]36C)[C@@]54O`, the figure is less than 10%. Consider `COC(=O)[C@@H]1C[C@@]23C(=O)[C@H]4C[C@H]5N(C[C@H]4C)C[C@@H]([C@H](O)CC4=C2[C@@H]1CC4)[C@]53C`, for which the inhibition was less than 10%. Turning to `COC(=O)C1=C2CCC3=C2[C@@]2(C1)C(=O)[C@H]1C[C@@]4(O)N(C[C@@H](CC3)[C@@]24C)C[C@H]1C`, the inhibition is less than 10%. As to `COC(=O)[C@@H]1C[C@@]23C(=O)[C@H]4C[C@H]5N(C[C@@H](C[C@@H](O)C6=C2[C@@H]1CC6)[C@]53C)C[C@H]4C`, the inhibition was less than 10%. On to `C[C@@H]1CN2C[C@H]3CC[C@H](O)[C@@H]4C(CCO)=C(C(=O)O)C[C@@]45C(=O)[C@H]1C[C@@H]2[C@@]35C`, for which the inhibition is less than 10%. For the compound `COC(=O)[C@@H]1C[C@@]23C(=O)[C@H]4[C@H](O)[C@H]5N(C[C@@H](CCC6=C2[C@@H]1CC6)[C@]53C)C[C@H]4C`, the inhibition is less than 10%. With `C[C@@H]1CN2C[C@H]3CC[C@H](O)[C@@H]4C5=C(C[C@@]46C(=O)[C@H]1C[C@@H]2[C@@]36C)C(=O)OCC5`, the inhibition is less than 10%. On to `C[C@@H]1CN2C[C@H]3CC[C@]4(O)C[C@H](O)C5=C4[C@@]4(CC5)C(=O)[C@H]1C[C@@H]2[C@@]34C`, for which the inhibition is less than 10%. For `COC(=O)C1=C2C[C@H](O)C3=C2[C@@]2(C1)C(=O)[C@H]1C[C@H]4N(C[C@@H](CC3)[C@]42C)C[C@H]1C`, the inhibition is less than 10%. As to `C[C@@H]1CN2C[C@H]3CCC4=C5C(=CC[C@@]56C(=O)[C@H]1C[C@@H]2[C@@]36C)[C@@H](O)C4`, the inhibition was less than 10%.

The next assay deals with Tyrosine-protein phosphatase non-receptor type 1, PTP1B (Homo sapiens) (UniProt P18031). Description: Inhibition of human PTP1B protein expressed in insect High5 cells by Z-LYTE kinase assay. The note with it: concentration not given here.
In the case of `C[C@@H]1CN2C[C@H]3CC[C@@H]4C(=O)C=C5CC[C@@]6(C(=O)[C@H]1C[C@@H]2[C@@]36C)[C@@]54O`, the inhibition came to 44%.
